Data taken from patent publication US9212201B2, “Antifungal and antiparasitic polyene macrolides” (priority 2010, dated 2015).
Values after ≈ are worked out from the molar mass of the structure shown.

Assays:
Cladosporium spp. = assay: In vitro antifungal susceptibility CLSI M38-A (MIC); format: cell-based; conditions: 5 isolates
Method: (§1) In addition, MFC ([…]) was done for each species. The geometric mean (GM) was calculated for each isolate using all three results. All testing was performed in triplicate to verify the reproducibility of the data.
(§2) Several of the more common molds were also tested and evaluated including five strains of Alternaria, Cladosporium, Scopulariopsis, Acremonium, and Paecilomyces. Also evaluated were some of the more uncommon fungi such as Exophilia jeanselmei (3), Emmonsia parvum (Chrysporium parvum) (2) and Epioccum spp. (2). Conventional ATCC strains of different Candida and Aspergillus species were used as controls.

Scopulariopsis spp. = assay: as above; format: cell-based; conditions: 5 isolates
Method: as §1, §2

Epioccum spp. = assay: as above; format: cell-based; conditions: 2 isolates
Method: as §1, §2

[1] = system: Emmonsia parvum (Chrysporium parvum); assay: as above; format: cell-based; conditions: 2 isolates
Method: as §1, §2

Alternaria spp. = assay: as above; format: cell-based; conditions: 5 isolates
Method: as §1, §2

Paecilomyces spp. = assay: as above; format: cell-based; conditions: 5 isolates
Method: as §1, §2

Acremonium spp. = assay: as above; format: cell-based; conditions: 5 isolates
Method: as §1, §2

[2] = system: Other Candida species (C. lipolytica, C. sake, C. sphaerica, C. norvegica); assay: In vitro antifungal susceptibility CLSI M27-A2 (MIC, MFC); format: cell-based; conditions: Other Candida spp. (4)
C. lusitaniae = assay: as above; format: cell-based; conditions: C. lusitaniae (10)
C. albicans = assay: as above; format: cell-based; conditions: C. albicans (10)
[3] = system: Candida albicans (ATCC 44858); conditions: 3 mg/kg PO; 15-day observation
C. parapsilosis = assay: In vitro antifungal susceptibility CLSI M27-A2 (MIC, MFC); format: cell-based; conditions: C. parapsilosis (10)
C. glabrata = assay: as above; format: cell-based; conditions: C. glabrata (10)
Water solubility = format: physicochemical; conditions: in words

With `C[C@@H]1[C@H](O)[C@@H](C)/C=C/C=C/C=C/C=C/C=C/C=C/C=C/[C@H](O[C@@H]2O[C@H](C)[C@@H](O)[C@H](N)[C@@H]2O)C[C@@H]2O[C@](O)(C[C@@H](O)C[C@@H](O)[C@H](O)CC[C@@H](O)C[C@@H](O)CC(=O)O[C@H]1C)C[C@H](O)[C@H]2C(=O)O` [Amphotericin B, amphotericin B] the GM (Cladosporium spp.) was 0.7 µg/mL, the MIC50 (Cladosporium spp.) was 0.25 µg/mL (≈ 0.271 µM) and the “MIC Range” value (Cladosporium spp.) was 0.25 to 0.5 µg/mL. For the same compound, the GM (Scopulariopsis spp.) was 0.95 µg/mL, the MIC50 (Scopulariopsis spp.) was 1 µg/mL (≈ 1.08 µM) and the “MIC Range” value (Scopulariopsis spp.) was 0.5 to 1 µg/mL. The GM (Epioccum spp.) was 1 µg/mL, the MIC50 (Epioccum spp.) was 1 µg/mL (≈ 1.08 µM) and the “MIC Range” value (Epioccum spp.) was 1 µg/mL (≈ 1.08 µM). For the same compound, the GM [1] was 0.25 µg/mL, the MIC50 [1] was 0.25 µg/mL (≈ 0.271 µM) and the “MIC Range” value [1] was 0.25 µg/mL (≈ 0.271 µM). The GM (Alternaria spp.) was 0.25 µg/mL, the MIC50 (Alternaria spp.) was 0.25 µg/mL (≈ 0.271 µM) and the “MIC Range” value (Alternaria spp.) was 0.25 to 0.5 µg/mL. For the same compound, the GM (Paecilomyces spp.) was 1.4 µg/mL, the MIC50 (Paecilomyces spp.) was 1 µg/mL (≈ 1.08 µM) and the “MIC Range” value (Paecilomyces spp.) was 0.5 to 2 µg/mL. For the same compound, the GM (Acremonium spp.) was 8 µg/mL, the MIC50 (Acremonium spp.) was 8 µg/mL (≈ 8.66 µM) and the “MIC Range” value (Acremonium spp.) was 8 µg/mL (≈ 8.66 µM). The “GM (geometric mean MIC)” value [2] was 0.95 µg/mL, the MFC [2] was 2 µg/mL (≈ 2.16 µM) and the MIC50 [2] was 1 µg/mL (≈ 1.08 µM). For the same compound, the “MIC Range” value [2] was 0.5 to 1.0 µg/mL, the “GM (geometric mean MIC)” value (C. lusitaniae) was 0.575 µg/mL and the MFC (C. lusitaniae) was 0.5 µg/mL (≈ 0.541 µM). The MIC50 (C. lusitaniae) was 0.5 µg/mL (≈ 0.541 µM), the MIC90 (C. lusitaniae) was 1.0 µg/mL (≈ 1.08 µM) and the “MIC Range” value (C. lusitaniae) was 0.25 to 1.0 µg/mL. The “GM (geometric mean MIC)” value (C. albicans) was 0.612 µg/mL, the MFC (C. albicans) was 1 µg/mL (≈ 1.08 µM) and the MIC50 (C. albicans) was 0.5 µg/mL (≈ 0.541 µM). For the same compound, the MIC90 (C. albicans) was 1 µg/mL (≈ 1.08 µM), the “MIC Range” value (C. albicans) was 0.12 to 1 µg/mL and the “increase in survival rate” value [3] was 80%. The “GM (geometric mean MIC)” value (C. parapsilosis) was 0.7 µg/mL, the MFC (C. parapsilosis) was 2 µg/mL (≈ 2.16 µM) and the MIC50 (C. parapsilosis) was 0.5 µg/mL (≈ 0.541 µM). For the same compound, the MIC90 (C. parapsilosis) was 1 µg/mL (≈ 1.08 µM), the “MIC Range” value (C. parapsilosis) was 0.5 to 1.0 µg/mL and the “GM (geometric mean MIC)” value (C. glabrata) was 0.9 µg/mL. It also gave an MFC (C. glabrata) of 1 µg/mL (≈ 1.08 µM), an MIC50 (C. glabrata) of 1 µg/mL (≈ 1.08 µM) and an MIC90 (C. glabrata) of 1 µg/mL (≈ 1.08 µM). For the same compound, the “MIC Range” value (C. glabrata) was 0.5 to 1.0 µg/mL, the MIC50 (C. glabrata; listed as amphotericin B) was 1.0 µg/mL (≈ 1.08 µM) and the Water solubility (Water solubility) was “insoluble”.
